Experiment [1] relates to H3K4me2 in the P19 cell line. The settings on record: cited from earlier work.
Experiment [2] relates to HCT116 human colon tumor xenograft. The experiment is described as follows: HCT116 human colon tumor xenograft model. Format: in vivo, athymic nu/nu Fox Chase mice. The settings on record: 2 mg/kg, 5 times a week over 38 days. (Xenograft models place foreign cells or tissue in a host animal.)
Protocol: Previously, various polyaminobiguanidides were evaluated in an HCT116 human colon tumor xenograft model in athymic nu/nu Fox Chase mice. Mice were treated with polyaminobiguanidides, 5-azacytidine (5-AC) or a combination of the two agents. Drugs were administered 5 times a week over a period of 38 days.
For a further experiment, the system named is H3K4me2. The experiment is described as follows: H3K4me2 level by Western blotting of nuclear fractions. It counts as cell-based. The settings on record: Homo sapiens. The method, then: Synthetic H3K4me2 peptides were purchased from Millipore (Billerica, Mass.). Calu-6 cells were maintained in RPMI medium, both supplemented with 10% fetal bovine serum (Gemini Bio-Products, Woodland, Calif.) and grown at 37° C. in 5% CO2 atmosphere.
Cytoplasmic and nuclear fractions were prepared for Western blot analysis using the NE-PER™ Nuclear and Cytoplasmic Extraction Kit (Pierce, Rockford, Ill.). Primary antibodies against H3K4me2 were from Millipore. The pCNA monoclonal antibody was purchased from Oncogene Research Products (Cambridge, Mass.). Dye-conjugated secondary antibodies were used for quantification of Western blot results using the Odyssey Infrared Detection system and software (LI-COR Biosciences, Lincoln, Nebr.).
A general note: In western blotting, separated proteins are transferred to a membrane and probed.

The next experiment has as its target T1, recombinant human LSD1 (Homo sapiens, UniProt O60341).
T1 construct: Full-length human LSD1 cDNA was subcloned into the pET15b bacterial expression vector; 6xHis (N); made in house; host or cells: Escherichia coli BL21(DE3)
Nature of the experiment: LSD1 demethylase assay, luminol-dependent chemiluminescence (H2O2 production), H3K4me2 (1-21 aa) peptide substrate. The conditions noted are these: compound at 10 μM. Format: biochemical. The method, then: Full-length human LSD1 cDNA was subcloned into the pET15b bacterial expression vector (Novagen, Madison, Wis.) in frame with an N-terminal 6×HIS-tag and transformed into the BL21(DE3) strain of Escherichia coli. Following selection, expression and purification of recombinant LSD1 protein were performed as previously described. Briefly, expression of LSD1-HIS protein was induced by 1 mM IPTG for 6 h at 25° C. The HIS-tagged protein was purified using Ni-NTA affinity purification resin and column as recommended by the manufacturer (Qiagen, Valencia, Calif.). Bound protein was eluted by imidazole and the eluate was dialyzed in PBS at 4° C. Enzymatic activity of LSD1 was examined using luminol-dependent chemiluminescence to measure the production of H2O2, as previously described. In brief, LSD1 activity was assayed in 50 mM Tris, pH 8.5, 50 mM KCl, 5 mM MgCl, 5 nmol luminol, and 20 μg/ml horseradish peroxidase with the indicated concentrations of H3K4me2 (1-21 aa) peptide as substrate. The integral values were calibrated against standards containing known concentrations of H2O2, and the activities expressed as pmols H2O2/mg protein/min. Reaction mixtures were incubated with or without 5 μg purified LSD1 in 50 mM Tris, pH 8.5, 50 mM KCl, 5 mM MgCl, 0.5% BSA, and 5% glycerol for 3 hr at 37° C. This reaction mixture was analyzed by Western blotting using antibodies (Millipore) that specifically recognize the dimethyl group of H3K4.

In experiment [3] the target is recombinant LSD1/CoRest complex (Homo sapiens, UniProt O60341). The conditions noted are these: cited from earlier work.
The mark [4] stands for this setting: 24 h, read-out: H3K4me2 Fold Increase (24 h).
Where [5] appears, read: 48 h, read-out: H3K4me2 Fold Increase (48 h).

The remaining activity is what remains of the control signal, in per cent.

Like-named read-outs stand apart in the source and are kept apart here.

As for `N[C@@H]1C[C@H]1c1ccccc1` (racemic) [tranylcypromine], the “effect on global levels of H3K4me2 (in words)” value in experiment [1] is “increase global levels of H3K4me2”.

`Nc1ncn([C@@H]2O[C@H](CO)[C@@H](O)[C@H]2O)c(=O)n1` [Entry 5-AC, 5-azacytidine]: the “reduction of tumor growth” value in experiment [2] was “about 50%”.

Consider `O=C(O)CC(=O)Nc1ccccc1F` [Entry 33], for which the fold induction at 5 µM in the experiment with H3K4me2 (setting [4]) is 1.81; with H3K4me2 (setting [5]) it was 3.15. For the same molecule, the fold induction at 10 µM came to 1.5 with H3K4me2 (setting [4]) and 1.09 with H3K4me2 (setting [5]). Also, on recombinant human LSD1, the remaining activity at 10 µM is 98.2%.

With `O=C(O)CCC(=O)Nc1ccccc1F` [Entry 34], the remaining activity at 10 µM at recombinant human LSD1 was 92.6%.

As to `O=C(O)CCCC(=O)Nc1ccccc1F` [Entry 35], the remaining activity at 10 µM on recombinant human LSD1 worked out at 100%.

As for `O=C(O)CCCCC(=O)Nc1ccccc1F` [Entry 36], the remaining activity at 10 µM at recombinant human LSD1 is 76.4%.

Take `O=C(O)CCCCCC(=O)Nc1ccccc1F` [Entry 37]: at recombinant human LSD1, the remaining activity at 10 µM was found to be 95.9%.

On to `COC(=O)[C@@H](N)CCCCNC(=O)CC(=O)Nc1ccccc1F` [Entry 38], for which, in the experiment with H3K4me2 (setting [4]), the fold induction at 5 µM was determined as 0.3 and the fold induction at 10 µM came out at 0.2. In the experiment with H3K4me2 (setting [5]), the fold induction at 5 µM turned out to be 0.7 and the fold induction at 10 µM was found to be 5.6. The remaining activity at 10 µM on recombinant human LSD1 is 88.4%.

For the molecule `COC(=O)[C@H](CCCCNC(=O)NC(c1ccccc1)c1ccccc1)NC(=O)CC(=O)Nc1ccccc1F` [Entry 39], the remaining activity at 10 µM at recombinant human LSD1 stood at 100%.

For the molecule `COC(=O)[C@H](CCCCNC(=O)NCC(c1ccccc1)c1ccccc1)NC(=O)CC(=O)Nc1ccccc1F` [Entry 40], the remaining activity at 10 µM at recombinant human LSD1 was determined as 100%.

`COC(=O)[C@H](CCCCNC(=O)NCCC(c1ccccc1)c1ccccc1)NC(=O)CC(=O)Nc1ccccc1F` [Entry 41]: the remaining activity at 10 µM at recombinant human LSD1 came out at 100%.

Regarding `COC(=O)[C@H](CCCCNC(=S)NC(c1ccccc1)c1ccccc1)NC(=O)CC(=O)Nc1ccccc1F` [Entry 42], in the experiment on H3K4me2 (setting [4]), the fold induction at 5 µM turned out to be 49.1 and the fold induction at 10 µM came out at 60.6. Besides, in the experiment on H3K4me2 (setting [5]), the fold induction at 5 µM worked out at 0.5 and the fold induction at 10 µM worked out at 3. Moreover, on recombinant human LSD1, the remaining activity at 10 µM came to 100%.

In the case of `COC(=O)[C@H](CCCCNC(=S)NCC(c1ccccc1)c1ccccc1)NC(=O)CC(=O)Nc1ccccc1F` [Entry 43], on recombinant human LSD1, the remaining activity at 10 µM stood at 100%.

`COC(=O)[C@H](CCCCNC(=S)NCCC(c1ccccc1)c1ccccc1)NC(=O)CC(=O)Nc1ccccc1F` [Entry 44]: the remaining activity at 10 µM at recombinant human LSD1 worked out at 100%.

Turning to `C#CCN(CC#C)CCCC[C@H](NC(=O)CC(=O)Nc1ccccc1F)C(=O)OC` [Entry 45], the remaining activity at 10 µM at recombinant human LSD1 is 84.1%.

For the molecule `C#CCNCCCC[C@H](NC(=O)CC(=O)Nc1ccccc1F)C(=O)OC` [Entry 46], at recombinant human LSD1, the remaining activity at 10 µM amounted to 90.4%.

Consider `C#CCN(CC#C)CCCC[C@H](NC(=O)CCC(=O)Nc1ccccc1F)C(=O)OC` [Entry 47], for which, at recombinant human LSD1, the remaining activity at 10 µM is 92.4%.

For `C#CCN(CC#C)CCCC[C@H](NC(=O)CCCC(=O)Nc1ccccc1F)C(=O)OC` [Entry 48], the remaining activity at 10 µM at recombinant human LSD1 was found to be 100%.

Turning to `C#CCN(CC#C)CCCC[C@H](NC(=O)CCCCC(=O)Nc1ccccc1F)C(=O)OC` [Entry 49], the remaining activity at 10 µM on recombinant human LSD1 is 100%.

Turning to `C#CCN(CC#C)CCCC[C@H](NC(=O)CCCCCC(=O)Nc1ccccc1F)C(=O)OC` [Entry 50], on recombinant human LSD1, the remaining activity at 10 µM turned out to be 100%.

As to `NNCCc1ccccc1` [phenelzine], the “effect on global levels of H3K4me2 (in words)” value in experiment [1] is reported as “increase global levels of H3K4me2”. In addition, in experiment [3], the “effect on nucleosomal demethylation (in words)” value is listed as “inactivate nucleosomal demethylation”.
